Experiments:
Sprague-Dawley male rats [1] = format: in vivo, rat; settings: absorption enhancer in insulin formulation, pulmonary administration
Description: Sprague-Dawley male rats weighted 200-250 g were randomly divided into 7 groups. […] Group 1 was the control group, wherein each rat was administered with Formulation A only.
After administering the formulations to the lung for 0, 5, 15, 30, 60, 90, 120, 180, 240, and 300 minutes, 0.25 ml of blood sample was collected from each rat. After the pulmonary administration for 5 hours, an excess amount of pentobarbital sodium (3 ml) was injected into the femoral artery of the rats. After 5 minutes, the rats were bled and then pulmonary perfusion with phosphate buffer solution was performed.
The collected first 5 ml pulmonary perfusion samples were centrifuged at 350×g in 4° C. for 10 minutes. […]
Based on the pigmentation principle of Biuret reaction (British Pharmacopoeia, p. A23 (1998)), the amount of total protein was determined by measuring the value of OD546 with Autoanalyzer Hitachi 7150; then, the value was converted into the concentration of the protein (the results are shown in Table 3).
Based on the standard operation procedures of the GSCC (German Society of Clinical Chemistry; Recommendation of the German Society for Clinical Chemistry: Z. Klin. Chem. Klin. Biochem., 10, 287-288, 1972), the activity of LDH was determined by measuring the change of OD340 with Autoanalyzer Hitachi 7150; then, the change was converted into the activity of LDH (the results are shown in Table 3).

Sprague-Dawley male rats [2] = assay: In vivo bioavailability study: plasma glucose decrease after pulmonary administration to rats; parameters: species or system rat; settings: enhancer added to insulin formulation
Description: Sprague-Dawley male rats weighted 200-250 g were randomly divided into 7 groups. According to the method disclosed in Enna, S. T. et al. (J. Physiol., 1972, 222: 409-414), after the rats were narcotized by abdominally injecting pentobarbital sodium (28.6 ml/kg), catheters were inserted into the trachea and the left femoral artery, respectively, from the cut neck. Group 1 was the control group, wherein each rat was administered with Formulation A only.
The collected blood samples were centrifuged at 3000 rpm in 4° C. for 15 minutes. The upper layer of the plasma was collected. […] The concentrations of insulin in the upper layer samples of plasma were determined by the utilization of a Rat Insulin ELISA Kit (Mercodia), and the pharmacokinetic parameters of the absorption enhancers were further analyzed.

Compound	toxic side effects in the lung (Sprague-Dawley male rats [1])	bioavailability of insulin, maximal increase by addition of absorption enhancer (Sprague-Dawley male rats [2]) [%]
CCCCCCCC/C=C\CCCCCCCC(=O)OCCOCC(OCCO)C1OCC(OCCO)C1OCCO (stereo not drawn) [Tween-80]	would not induce toxic side effects in the lung	84.6
LPTC-lauroyl [L-LPTC]	would not induce toxic side effects in the lung	–

— US8058236B2, “Aqueous inhalation pharmaceutical composition” (Development Center for Biotechnology, priority 2005, dated 2011)
